A short description of data set [1]: Tissue exposure measurements in rats (plasma and brain). The data set is classed as in vivo. The conditions noted are these: rat; for Kp / Cmax: male, Sprague Dawley; for Cmax: plasma; for Cmax / Brain Cmax / Plasma Cmax: mean ± SD. On the procedure:
The circulating plasma levels and tissue distribution of compounds were determined according to the method described in WO2011135276 (Webster et al., 2011a). Animals were group‐housed, had free access to food and water and were maintained in accordance with UK Home Office regulations. The animal work was conducted under UK Home Office Project Licence no. PPL 60/3915.
Compounds were prepared in 0.9% saline containing 2% DMSO (v^.v^‐1) and 38% PEG400 (v^.v^‐1) and administered to male Sprague Dawley rats by oral gavage such that the final concentration of compound was 10 mg·kg^−1. Rats (n = 3 per time point) were killed by decapitation at 1, 4 and 6 h post dosing, and trunk blood and tissues (liver, adipose and brain) were excised. Blood samples at 0.5 and 2 h post dosing were taken by a tail nick from the 4 and 6 h rats respectively.
Compounds were triple extracted from plasma (prepared from blood by a high speed centrifugation step) and spiked with 1 μg of a standard compound using ethyl acetate. Extracts were dried under nitrogen and re‐suspended in 60% methanol/40% ammonium acetate (5 mM).
A known weight of tissue was homogenized in 3 volumes of Krebs buffer. The compound was triple extracted with ethyl acetate from the supernatant of a low speed spin spiked with […] of a standard compound. Extracts were dried under nitrogen and re‐suspended in 60% methanol/40% ammonium acetate (5 mM).
Samples from plasma and tissue were analysed by TSQ Quantum Discovery Tandem Mass Spectrometer and Surveyor Liquid Chromatogram (Thermo, Hemel‐Hempstead, UK). Then 10 μL of each sample was injected in a mobile phase consisting of 60% methanol/40% ammonium acetate (5 mM) at a flow rate of 0.5 mL·min^−1. The column used was a BDS hypersil C18, 50 × 2.1 mm with a 5 μm particle size.
Each compound was tuned with a spray voltage of 3000 V and a capillary temperature of 300°C, and values for tube lens, CID and product ions were determined. The peak area for each compound and for the internal standard was determined, and the concentration of compound ^. g^‐1 of tissue or mL^‐1 of plasma was calculated by comparison of the peak area ratio to a standard curve.

Data set [2] addresses T1, human 11β‐HSD1 (Homo sapiens, UniProt P28845).
T1 construct: a construct containing the full‐length gene coding for the human 11β‐HSD1 enzyme; expressed in transfected cells; host or cells: HEK293
Briefly: Inhibition of human 11β-HSD1 in stably transfected HEK293 cells. The data set is classed as cell-based. Conditions: HEK293 cells; mean ± SD [n]; read-out: Human 11β‐HSD1 IC50 in HEK293 cells. On the procedure: Inhibition of human 11β‐HSD1 was determined in HEK293 cells stably transfected with a construct containing the full‐length gene coding for the human 11β‐HSD1 enzyme according to the protocol described by Sooy et al., 2010.

The nature of data set [3]: Aqueous solubility at pH 7.4. It counts as physicochemical. The conditions noted are these: thermodynamic from solid, pH 7.4, room temperature, mean ± SD [n]. Here is the method:
The concentration was quantified by HPLC with reference to a standard calibration curve. The solubility was calculated using the peak areas determined by integration of the peak found at the same retention time as the principal peak in the standard injection.

A short description of data set [4]: Plasma protein binding, human plasma. The data set is classed as in vitro ADME. The conditions noted are these: for Plasma protein binding (% unbound), human: mean ± SD [n]. On the procedure:
Plasma protein binding was determined using pooled human plasma according to the method described in WO2011135276 (Webster et al., 2011a).

Data set [5] in a line: in vivo. The conditions noted are these: male, Sprague Dawley, rat. On the procedure:
Pharmacokinetic studies were carried out at Quotient Bioresearch, UK. For both i.v. and p.o. administration, compounds were prepared in 0.9% saline containing 2% DMSO (v^.v^‐1) and 38% PEG400 (v^.v^‐1). Solutions were passed through 0.22 μm filters prior to administration. Animals were given ad libitum access to food and water throughout the study. For i.v. administration three male Sprague Dawley rats each received 1 mg·kg^−1 of compound by tail vein injection (dose volume 5 mL·kg^−1). Serial blood samples were taken from a lateral tail vein 5, 15, 30 min, 1, 2, 4, 6 and 8 h post i.v. administration, and stored in individual EDTA containers. Blood samples were flash frozen in liquid nitrogen and stored at −20°C prior to analysis. For p.o. administration, five male Sprague Dawley rats were dosed with compound at 5 mg·kg^−1 (dose volume 10 mL·kg^−1). Serial blood samples were taken from a lateral tail vein 15, 30 min, 1, 2, 4, 6 and 8 h post p.o. administration, and stored in individual EDTA containers. Blood samples were flash frozen in liquid nitrogen and stored at −20°C prior to analysis. Blood samples were thawed at ambient temperature and vortex mixed thoroughly. A representative aliquot of each blood sample was diluted 1:1 v^.v^‐1 with HPLC grade water prior to protein precipitation with acetonitrile containing diazepam internal standard (blood/water: acetonitrile ratio was 1:4 v^ v^‐1). Following vortex mixing and centrifugation (4°C, 15 min, 17 000 x g) a 100 μL aliquot of supernatant was diluted by addition of 50 μL HPLC grade water in a well of a 96‐well midi‐eppendorf plate. The plate was sealed and shaken on a plate shaker to ensure sample homogeneity. Samples were assayed against a series of matrix matched calibration curve standards by LC–MS/MS using a Sciex 3000 mass spectrometer. Pharmacokinetic parameters were derived by non‐compartmental analysis using WinNonLin pharmacokinetic software.

A short description of data set [6]: Microsomal stability, rat liver microsomes. The data set is classed as in vitro ADME. Conditions: mean ± SD [n]. On the procedure:
(§1) Microsomal stability was determined using pooled human, rat or dog liver microsomes according to the method described in WO2011135276 (Webster et al., 2011a).
A general note: Liver microsomes are a subcellular fraction often used to study metabolism.

Data set [7] deals with T2, hERG K+ channel (Homo sapiens, UniProt Q12809).
T2 construct: Chinese hamster lung cell line stably expressing the full length hERG channel; host or cells: Chinese hamster lung cell line
Kind of data set: hERG inhibition, IonWorks Quattro patch clamp. The data set is classed as cell-based. The conditions noted are these: Chinese hamster lung cells expressing hERG; mean ± SD [n]. Here is the method:
Testing was performed by Essen Instruments, Hertfordshire, UK. Compounds were tested for inhibition of the human ether a go‐go related gene (hERG) K+ channel in a Chinese hamster lung cell line stably expressing the full length hERG channel. Single cell ionic currents were measured in the perforated patch clamp configuration at room temperature using an IonWorks Quattro instrument. Eight‐point concentration–response curves were generated using threefold serial dilutions from the maximum final assay concentration. IC50 values were obtained from a four‐parameter logistic fit of the % inhibition data.
For orientation: hERG is a cardiac potassium channel; its block is linked to QT prolongation.

The nature of data set [8]: Plasma protein binding, dog plasma. Conditions: mean ± SD [n]. The data set is classed as in vitro ADME.
A short description of data set [9]: Microsomal stability, human liver microsomes. It counts as in vitro ADME. Conditions: mean ± SD [n]. Here is the method: as §1
Data set [10] in a line: Pharmacokinetics in dog (i.v. and p.o.). The data set is classed as in vivo. Conditions: Beagle, plasma. Here is the method:
Pharmacokinetic studies were carried out at Charles River, UK. For both i.v. and p.o. administration, compounds were prepared in 0.9% saline containing 2% DMSO (v^.v^‐1) and 38% PEG400 (v^.v^‐1). Solutions were passed through 0.22 μm filters prior to administration. Three Beagle dogs each received a single i.v. injection of compound 4 at a dose level of 1 mg·kg^−1. Following a washout period of 1 week, each animal received a single p.o. dose of compound 4 at a dose level of 5 mg·kg^−1.
After a washout period of 6 weeks, the same three dogs each received a single i.v. injection of compound 7 at a dose level of 1 mg·kg^−1. Following a washout period of 1 week, each animal received a single p.o. dose of compound 7 at a dose level of 5 mg·kg^−1.
Plasma samples were obtained up to 24 h post dose administration, and the concentration of each test item in plasma was determined using LC–MS/MS. Pharmacokinetic parameters were derived by non‐compartmental analysis using WinNonLin pharmacokinetic software.

Data set [11] can be described thus: Plasma protein binding, rat plasma. It counts as in vitro ADME. Conditions: mean ± SD [n].
Data set [12] is described as follows: Microsomal stability, dog liver microsomes. It counts as in vitro ADME. The conditions noted are these: mean ± SD [n]. On the procedure: as §1
The mark [13] stands for this setting: brain and plasma, po, 10 mg/kg, 10 mg·kg^−1 oral gavage, read-out: Brain : plasma ratio.
The mark [14] stands for this setting: po, 10 mg/kg, 10 mg·kg^−1 oral gavage.

Converted amounts (≈) assume the structure as drawn. Like-named read-outs stand apart in the source and are kept apart here.

T1 sequence (P28845 whole entry): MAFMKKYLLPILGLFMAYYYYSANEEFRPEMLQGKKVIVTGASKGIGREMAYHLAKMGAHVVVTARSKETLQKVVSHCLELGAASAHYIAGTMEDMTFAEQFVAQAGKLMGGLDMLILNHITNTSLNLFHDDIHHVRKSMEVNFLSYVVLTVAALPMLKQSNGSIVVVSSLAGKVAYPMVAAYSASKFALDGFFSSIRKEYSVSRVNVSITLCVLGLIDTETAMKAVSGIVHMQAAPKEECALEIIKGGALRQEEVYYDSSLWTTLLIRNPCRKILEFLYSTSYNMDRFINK
T2 sequence (Q12809 whole entry): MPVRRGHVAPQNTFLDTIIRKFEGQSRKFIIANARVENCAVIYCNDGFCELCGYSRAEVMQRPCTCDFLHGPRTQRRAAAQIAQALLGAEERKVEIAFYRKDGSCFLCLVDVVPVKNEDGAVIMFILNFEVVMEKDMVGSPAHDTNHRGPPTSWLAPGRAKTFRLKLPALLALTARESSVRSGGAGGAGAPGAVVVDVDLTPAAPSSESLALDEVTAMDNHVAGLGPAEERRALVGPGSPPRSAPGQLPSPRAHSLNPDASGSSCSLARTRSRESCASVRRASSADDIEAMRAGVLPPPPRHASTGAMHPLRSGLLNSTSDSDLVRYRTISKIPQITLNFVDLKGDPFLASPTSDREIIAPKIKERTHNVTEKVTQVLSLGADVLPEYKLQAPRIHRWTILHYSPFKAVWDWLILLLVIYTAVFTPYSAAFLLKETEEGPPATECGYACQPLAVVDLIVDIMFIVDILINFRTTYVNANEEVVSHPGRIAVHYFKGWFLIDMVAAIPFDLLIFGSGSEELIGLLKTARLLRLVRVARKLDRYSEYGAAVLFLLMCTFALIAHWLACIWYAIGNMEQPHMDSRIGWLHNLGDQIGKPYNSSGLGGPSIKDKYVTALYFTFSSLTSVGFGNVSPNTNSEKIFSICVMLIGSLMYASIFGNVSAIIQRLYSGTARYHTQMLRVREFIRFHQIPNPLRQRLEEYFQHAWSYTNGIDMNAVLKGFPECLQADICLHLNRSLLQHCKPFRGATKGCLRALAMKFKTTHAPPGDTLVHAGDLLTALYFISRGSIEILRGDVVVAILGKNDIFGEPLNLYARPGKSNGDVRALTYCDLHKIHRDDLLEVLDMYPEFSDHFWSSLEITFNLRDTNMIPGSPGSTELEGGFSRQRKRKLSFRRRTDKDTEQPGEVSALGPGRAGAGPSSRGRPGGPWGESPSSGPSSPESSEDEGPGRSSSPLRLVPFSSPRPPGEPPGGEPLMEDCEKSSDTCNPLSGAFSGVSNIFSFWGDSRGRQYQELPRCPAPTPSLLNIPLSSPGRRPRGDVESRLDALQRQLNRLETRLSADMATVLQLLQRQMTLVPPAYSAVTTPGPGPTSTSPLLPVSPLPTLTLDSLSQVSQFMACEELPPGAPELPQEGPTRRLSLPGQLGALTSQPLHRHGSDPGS

For the molecule `O=C(c1csc(-c2cn[nH]c2)c1)N1C2CCC1CC(O)(c1ccccn1)C2` (stereo not shown) [compound 2], in [1] (setting [13]), the Kp worked out at 0.02. The highest level in [1] (setting [14]) (Cmax) was 1270 ± 330 ng/mL. Also, the “Brain Cmax” value in data set [1] (10 mg·kg^−1 oral gavage) came out at 31 ± 12 ng/mL. The IC50 (commonly the midpoint of a concentration-inhibition curve) in data set [2] is 26 ± 8 nM.

Take `O=C(c1csc(-c2cn[nH]c2)c1)N1C2CCC1CC(O)(c1ccccc1)C2` (stereo not shown) [compound 1]: the solubility (in general, how much of the substance goes into solution per volume) in data set [3] (aqueous buffer) is 6 µg/mL (≈ 15.8 µM). The Kp in data set [1] (setting [13]) was found to be 0.07. In addition, the Cmax (in general, the highest concentration seen after dosing) in data set [1] (setting [14]) is 419 ± 28 ng/mL. For the same molecule, the “Brain Cmax” value in data set [1] (10 mg·kg^−1 oral gavage) stood at 29 ± 10 ng/mL. In addition, the “Plasma protein binding (% unbound), human” value in [4] is listed as 10±0 % unbound. In addition, the IC50 in [2] came out at 22 ± 2 nM. In [5], the bioavailability (as a rule, the share of a dose that reaches the circulation, judged against a reference dose that is usually intravenous) was found to be 23% and the half-life (as a rule, the time needed for the level to fall by half in the phase considered) was 0.9 ± 0.1 h. In data set [5] (iv, 1 mg/kg), this molecule returned a clearance of 34 ± 22 mL/min/kg.

For `N#CC1(c2ccccn2)CC2CCC(C1)N2C(=O)c1csc(-c2cn[nH]c2)c1` (stereo not shown) [compound 8], the Kp in data set [1] (setting [13]) was found to be 0.03. This molecule came in with a Cmax in [1] (setting [14]) of 291 ± 74 ng/mL. The “Brain Cmax” value in [1] (10 mg·kg^−1 oral gavage) was determined as 9 ± 3 ng/mL. Further, the IC50 in [2] is 15 nM.

With `N#CC1(c2ncccn2)CC2CCC(C1)N2C(=O)c1csc(-c2cn[nH]c2)c1` (stereo not shown) [compound 9], the Kp in [1] (setting [13]) is 0.07. This molecule also yielded a maximum concentration (Cmax) in data set [1] (setting [14]) of 230 ± 33 ng/mL. The “Brain Cmax” value in data set [1] (10 mg·kg^−1 oral gavage) stood at 15 ± 1 ng/mL. Moreover, the IC50 in data set [2] is 13 ± 3 nM.

Molecule `O=C(c1csc(-c2cn[nH]c2)c1)N1C2CCC1CC(F)(c1ccccn1)C2` (stereo not shown) [compound 7] gave a solubility in [3] (aqueous phosphate buffer) of 6 µg/mL (≈ 15.7 µM). For the same molecule, the “Liver microsomal stability (% parent at 30 min), rat” value in [6] was 45 ± 5 [3] % parent at 30 min. Also, the Kp in data set [1] (brain (relative to free plasma), oral, 10 mg·kg^−1, rat, rat plasma protein binding taken into account, read-out: brain : plasma free ratio) was 2.45; in data set [1] (setting [13]), 0.24. Also, the “Brain Cmax” value in [1] (10 mg·kg^−1 oral gavage) was found to be 374 ± 184 ng/mL. In [1] (10 mg·kg^−1 oral gavage), the “Plasma Cmax” value was found to be 1526 ± 212 ng/mL. For the same molecule, the “Plasma protein binding (% unbound), human” value in data set [4] was 11 ± 2 [2] % unbound. Further, the “free fraction in plasma relative to the 3‐endo isomer (compound 6)” value in [4] (species not stated, in words) was “twofold greater”. Further, the values for the IC50 in data set [7] and in [2] were 3100 ± 600 nM and 7 ± 4 nM, respectively. In addition, the “Plasma protein binding (% unbound), dog” value in data set [8] was 11 ± 0 [1] % unbound. The “Liver microsomal stability (% parent at 30 min), human” value in data set [9] was 51 ± 3 [3] % parent at 30 min. This molecule registered a clearance in data set [10] (iv, i.v. 1 mg·kg^−1, mean ± SD) of 8.68 ± 2.03 mL/min/kg. Also, in data set [10] (mean ± SD), the half-life was 3.21 ± 1.61 h. Further, the Cmax in [10] (po, p.o. 5 mg·kg^−1, mean ± SD) was 3100 ± 908 ng/mL. Further, the AUC (commonly concentration integrated over time) in [10] (po, p.o. 5 mg·kg^−1, mean ± SD, read-out: Oral AUC(0➔∞)) stood at 9210 ± 2000 ng·h/mL. Also, the bioavailability in data set [10] (po, p.o. 5 mg·kg^−1 vs i.v. 1 mg·kg^−1, mean ± SD) was 90 ± 40%. In addition, the “Plasma protein binding (% unbound), rat” value in data set [11] is 10 ± 1 [2] % unbound. For the same molecule, the “Liver microsomal stability (% parent at 30 min), dog” value in [12] is 74 ± 1 [3] % parent at 30 min.

In the case of `O=C(c1csc(-c2cn[nH]c2)c1)N1C2CCC1CC(F)(c1ccccn1)C2` (stereo not shown) [compound 6], in [1] (10 mg·kg^−1 oral gavage), the “Brain : plasma ratio” value is listed as 0.27, the “Brain Cmax” value is 108 ± 54 ng/mL and the “Plasma Cmax” value stood at 399 ± 99 ng/mL. Besides, the IC50 in data set [2] worked out at 22 ± 10 nM.

As to `O=C(c1csc(-c2cn[nH]c2)c1)N1C2CCC1CC(O)(c1cnccn1)C2` (stereo not shown) [compound 5], the Kp in [1] (setting [13]) was 0.03. The molecule further returned a Cmax in [1] (setting [14]) of 589 ± 161 ng/mL. In addition, the “Brain Cmax” value in data set [1] (10 mg·kg^−1 oral gavage) came out at 19 ± 17 ng/mL. Also, the IC50 in data set [2] was found to be 37 ± 3 nM.

For the molecule `O=C(c1csc(-c2cn[nH]c2)c1)N1C2CCC1CC(O)(c1ncccc1Cl)C2` (stereo not shown) [compound 3], the Kp in data set [1] (setting [13]) came to 0.31. The same molecule gave a Cmax in data set [1] (setting [14]) of 115 ± 48 ng/mL. In addition, in data set [1] (10 mg·kg^−1 oral gavage), the “Brain Cmax” value is 36 ± 12 ng/mL. Besides, the IC50 in [2] is 12 nM.
